Source: patent US20230241044A1, “TREATMENT FOR PSORIASIS AND SKIN INFLAMMATORY DISEASES” (ZYDUS LIFESCIENCES LIMITED, priority 2020, published 2023)

Tests used:
[1] = system: IMQ-induced psoriasis-like skin lesions in mice; assay: Imiquimod-induced psoriasis in mice, topical treatment; assay type: in vivo, male C57 mice; details: topical 5% solution
Description: The 8 to 10 week old male C57 mice (18-20 g) received a daily topical dose of commercially available Imiquimod (IMQ) cream (5%, Imiquad;) on the shaved back and the right ear for 5 consecutive days, translating in a daily dose of 3.125 mg of the active compound to establish a model of IMQ-induced psoriasis. To examine the efficacy of topical solution of compound of formula (Ia), mice were randomly divided into 3 groups: IMQ-induced model group (IMQ) and IMQ + 5% compound of formula (Ia) solution and control group. Treatment was started on day 1 after the topical application of IMQ and continued upto day 5. All animals were assessed for the severity of the psoriasis-like skin condition, using 3 elements of the Psoriasis Area Severity Index (PASI), to assign a score of 0-4 (0, none; 1, mild; 2, moderate; 3, severe; 4, very severe) for each of the parameters erythema, scaling and thickness. The cumulative score (erythema plus scaling plus thickness) served to indicate the severity of inflammation (scale 0-12). Ear thickness was measured every day using thickness meter.

[2] = system: Mannan-induced psoriasis in mice; assay: Mannan-induced psoriasis in mice, topical treatment; assay type: in vivo, male C57 mice; details: topical 2.5% solution, day 5, FIG. 3
Description: The 8- to 10-week-old male C57 mice (18-20 g) received a single dose of mannan from Saccharomyces cerevisiae (20 mg/kg, intraperitoneal route, dissolved in saline). To examine the efficacy of topical solution of desidustat, mice were randomly divided into 3 groups: Normal control, mannan control- model group (MAN control), and mannan (MAN) + 2.5% compound of formula (Ia) solution. Normal control animals were given normal saline instead of mannan. Treatment was started on day 0 along with injection of mannan and continued up to day 5. Right ear thickness was measured every day using thickness meter.

HIF = details: animal model of anemia; Jain et al., 2019; Joharapurkar et al., 2018; cited from earlier work
[3] = clinical trials; cited from earlier work

Compound: O=C(O)CNC(=O)c1c(O)c2ccccc2n(OCC2CC2)c1=O [compound of formula (Ia), Desidustat]
- reduction of back skinfold thickness compared to IMQ ([1]; FIG. 2B): 15.5 ± 4.0%
- PASI score decreased to, compared with IMQ-control ([1]; cumulative score, FIG. 1D): 41.9 ± 7.6%
- reduction of erythema score (second mention) compared with IMQ-control ([1]; day 1 to day 5, FIG. 1A-C): 63.6 ± 11.5%
- reduction of erythema score compared with IMQ-control ([1]; day 1 to day 5, FIG. 1A-C): 46.2 ± 7.7%
- reduction of skin thickness score compared with IMQ-control ([1]; day 1 to day 5, FIG. 1A-C): 26.3 ± 10.4%
- thickening of the ear reduced to, compared to IMQ-control ([1]; right ear, FIG. 2A): 30.8 ± 2.6%
- reduction of right ear thickness compared to MAN control group [2]: 15.8 ± 2.5%
- effect on HIF and erythropoiesis (HIF): stabilizes HIF and thus induces erythropoiesis
- effect on haemoglobin [3]: improves haemoglobin
